Measured values from US20090105305A1, “Therapeutic Agents - 550” (AstraZeneca AB, priority 2006, published 2009).

molecular target: T1, human Fatty Acid Synthase (Homo sapiens, UniProt P49327); test: Human FAS enzyme assay (decrease in NADPH fluorescence); format: biochemical; conditions: % inhibition at a concentration of 100 micromolar
T1 construct: made in house
Method in brief: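 Readout: decrease in NADPH fluorescence (340 nm ex, 460 nm em) after 60 min at RT, background-subtracted against a read taken before substrate. Substrate mix contained 500 μM malonyl-CoA and 150 μM acetyl-CoA. It was added after 15 min enzyme (0.4 μg in-house human FAS)–compound–NADPH preincubation in Tris pH 7.5 buffer; % inhibition was fitted to IC50.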

T1 sequence (P49327 whole entry): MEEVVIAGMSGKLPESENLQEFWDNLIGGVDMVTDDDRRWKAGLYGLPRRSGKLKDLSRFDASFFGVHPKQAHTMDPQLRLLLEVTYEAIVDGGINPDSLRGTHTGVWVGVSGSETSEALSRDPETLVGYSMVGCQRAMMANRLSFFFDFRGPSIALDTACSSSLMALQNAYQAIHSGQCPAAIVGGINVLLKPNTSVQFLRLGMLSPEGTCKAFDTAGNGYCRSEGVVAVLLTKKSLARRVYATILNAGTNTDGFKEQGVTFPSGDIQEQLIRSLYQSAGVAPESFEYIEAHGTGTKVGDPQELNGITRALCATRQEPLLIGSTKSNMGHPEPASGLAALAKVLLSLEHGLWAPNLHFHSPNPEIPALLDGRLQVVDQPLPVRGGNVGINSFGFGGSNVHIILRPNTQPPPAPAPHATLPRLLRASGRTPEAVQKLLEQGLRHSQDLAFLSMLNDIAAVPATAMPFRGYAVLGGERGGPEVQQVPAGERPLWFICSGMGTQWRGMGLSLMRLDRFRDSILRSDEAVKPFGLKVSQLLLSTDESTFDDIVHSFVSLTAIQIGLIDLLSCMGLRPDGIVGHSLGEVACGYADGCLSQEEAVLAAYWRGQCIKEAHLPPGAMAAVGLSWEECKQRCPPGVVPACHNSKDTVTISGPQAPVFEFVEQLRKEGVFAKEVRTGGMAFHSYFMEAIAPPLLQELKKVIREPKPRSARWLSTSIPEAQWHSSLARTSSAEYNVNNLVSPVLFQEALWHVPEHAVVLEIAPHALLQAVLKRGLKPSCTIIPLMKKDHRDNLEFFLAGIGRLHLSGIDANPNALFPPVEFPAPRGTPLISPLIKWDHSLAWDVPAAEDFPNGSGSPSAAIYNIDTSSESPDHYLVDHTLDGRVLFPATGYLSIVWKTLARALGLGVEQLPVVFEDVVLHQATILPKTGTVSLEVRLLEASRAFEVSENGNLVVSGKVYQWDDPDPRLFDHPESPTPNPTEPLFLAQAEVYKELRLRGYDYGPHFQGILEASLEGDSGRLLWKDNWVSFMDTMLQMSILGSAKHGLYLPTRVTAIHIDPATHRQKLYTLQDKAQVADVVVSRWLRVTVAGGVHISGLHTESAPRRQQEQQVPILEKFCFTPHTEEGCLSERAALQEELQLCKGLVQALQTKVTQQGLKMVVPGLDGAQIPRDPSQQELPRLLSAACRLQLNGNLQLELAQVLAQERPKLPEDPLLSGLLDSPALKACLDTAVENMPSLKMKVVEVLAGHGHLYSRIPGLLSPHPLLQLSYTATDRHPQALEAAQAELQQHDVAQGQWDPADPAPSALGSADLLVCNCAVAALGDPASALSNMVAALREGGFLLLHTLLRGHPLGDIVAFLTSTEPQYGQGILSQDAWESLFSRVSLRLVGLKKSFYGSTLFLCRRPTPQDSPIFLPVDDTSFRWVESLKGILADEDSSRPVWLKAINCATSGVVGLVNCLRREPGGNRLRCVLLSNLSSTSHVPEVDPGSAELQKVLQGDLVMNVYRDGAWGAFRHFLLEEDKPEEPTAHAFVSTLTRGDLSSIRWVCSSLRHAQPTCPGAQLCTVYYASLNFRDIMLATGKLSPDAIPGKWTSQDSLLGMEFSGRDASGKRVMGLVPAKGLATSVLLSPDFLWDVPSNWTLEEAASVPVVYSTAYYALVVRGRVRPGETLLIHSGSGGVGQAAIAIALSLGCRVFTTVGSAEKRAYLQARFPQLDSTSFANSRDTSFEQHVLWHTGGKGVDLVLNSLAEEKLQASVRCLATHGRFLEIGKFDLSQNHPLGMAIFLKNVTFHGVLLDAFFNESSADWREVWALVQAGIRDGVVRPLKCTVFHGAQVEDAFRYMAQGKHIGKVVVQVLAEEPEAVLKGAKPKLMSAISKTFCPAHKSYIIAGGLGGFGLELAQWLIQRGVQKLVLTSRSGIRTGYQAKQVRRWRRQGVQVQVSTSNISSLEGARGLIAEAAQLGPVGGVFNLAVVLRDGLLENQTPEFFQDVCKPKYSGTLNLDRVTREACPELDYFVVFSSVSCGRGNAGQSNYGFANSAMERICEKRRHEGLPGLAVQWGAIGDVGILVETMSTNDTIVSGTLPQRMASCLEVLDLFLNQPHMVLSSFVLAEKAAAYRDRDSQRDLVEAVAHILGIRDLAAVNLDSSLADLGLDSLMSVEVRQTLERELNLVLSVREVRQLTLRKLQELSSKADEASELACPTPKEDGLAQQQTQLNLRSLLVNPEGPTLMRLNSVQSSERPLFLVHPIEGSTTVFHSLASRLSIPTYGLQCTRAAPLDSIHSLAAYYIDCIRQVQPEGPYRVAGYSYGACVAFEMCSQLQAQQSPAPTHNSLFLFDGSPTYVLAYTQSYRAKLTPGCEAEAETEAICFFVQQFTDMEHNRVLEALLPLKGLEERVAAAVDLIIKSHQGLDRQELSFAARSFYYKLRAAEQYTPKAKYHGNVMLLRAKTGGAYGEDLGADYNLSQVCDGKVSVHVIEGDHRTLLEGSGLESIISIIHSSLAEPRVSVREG

Point of comparison: Cc1ccc(C(=O)N2CCC(c3ccc(C#N)cc3)CC2)cc1NS(=O)(=O)c1ccccc1C(=O)N1CCOCC1 [Example 111, N-[5-[4-(4-cyanophenyl)piperidine-1-carbonyl]-2-methyl-phenyl]-2-(morpholine-4-carbonyl)benzenesulfonamide], inhibition at 100 µM 80%. Against it:
- Cc1ccc(NS(=O)(=O)c2cccc(C#N)c2)cc1C(=O)N1CCC(c2ccc(C#N)cc2)CC1 [Example 47, 3-cyano-N-[3-[4-(4-cyanophenyl)piperidine-1-carbonyl]-4-methyl-phenyl]benzenesulfonamide] — higher, 85%
- CCCC(C)S(=O)(=O)Nc1cc(C(=O)N2CCC(c3ccc(C#N)cc3)CC2)ccc1C (centres unmarked) [Example 63, N-[5-[4-(4-cyanophenyl)piperidine-1-carbonyl]-2-methyl-phenyl]pentane-2-sulfonamide] — higher, 85%
- Cc1ccc(C(=O)N2CCC(O)(c3ccc(C(F)(F)F)cc3)CC2)cc1NS(C)(=O)=O [Example 215, N-[5-[4-hydroxy-4-[4-(trifluoromethyl)phenyl]piperidine-1-carbonyl]-2-methylphenyl]methanesulfonamide] — lower, 56%
- Cc1ccc(C(=O)N2CCC(c3ccc(C#N)cc3)CC2)cc1NS(=O)(=O)CCCO [Example 205, N-[5-[4-(4-cyanophenyl)piperidine-1-carbonyl]-2-methylphenyl]-3-hydroxypropane-1-sulfonamide] — lower, 75%
- Cc1ccc(C(=O)N2CCC(c3ccc(C#N)cc3)CC2)cc1NS(=O)(=O)c1ccc(N(C)C)nc1 [Example 96, N-[5-[4-(4-cyanophenyl)piperidine-1-carbonyl]-2-methyl-phenyl]-6-dimethylamino-pyridine-3-sulfonamide] — higher, 98%
- CCc1ccc(C(=O)N2CCC(c3ccc(C#N)cc3)CC2)cc1NS(C)(=O)=O [Example 123, N-[5-[4-(4-cyanophenyl)piperidine-1-carbonyl]-2-ethyl-phenyl]methanesulfonamide] — higher, 85%
- Cc1ccc(C(=O)N2CCC(c3ccc(C#N)cc3)CC2)cc1NS(=O)(=O)c1cccnc1 [Example 107, N-[5-[4-(4-cyanophenyl)piperidine-1-carbonyl]-2-methyl-phenyl]pyridine-3-sulfonamide] — higher, 92%
- Cc1ccc(C(=O)N2CCC(c3ccc(C#N)cc3)CC2)cc1NS(=O)(=O)c1c(C)nn(C)c1Cl [Example 100, 5-chloro-N-[5-[4-(4-cyanophenyl)piperidine-1-carbonyl]-2-methyl-phenyl]-1,3-dimethyl-pyrazole-4-sulfonamide] — higher, 90%
- Cc1ccc(C(=O)N2CCC(c3ccc(N(C)S(C)(=O)=O)cc3)CC2)cc1NS(C)(=O)=O [Example 230, N-[2-methyl-5-[4-[4-(methyl-methylsulfonylamino)phenyl]piperidine-1-carbonyl]phenyl]methanesulfonamide] — lower, 73.2%
- Cc1ccc(C(=O)N2CCC(c3ccc(OCC#N)cc3)CC2)cc1NS(C)(=O)=O [Example 181, N-[5-[4-[4-(cyanomethoxy)phenyl]piperidine-1-carbonyl]-2-methylphenyl]methanesulfonamide] — higher, 100%
- Cc1ccc(C(=O)N2CCC(c3ccc(-c4nnco4)cc3)CC2)cc1NS(C)(=O)=O [Example 168, N-[2-methyl-5-[4-[4-(1,3,4-oxadiazol-2-yl)phenyl]piperidine-1-carbonyl]phenyl]methanesulfonamide] — lower, 75%
- Cc1ccc(C(=O)N2CCC(c3ccc(C#N)cc3)CC2)cc1NS(=O)(=O)CCNS(=O)(=O)C(C)C [Example 80, N-[2-[[5-[4-(4-cyanophenyl)piperidine-1-carbonyl]-2-methyl-phenyl]sulfamoyl]ethyl]propane-2-sulfonamide] — higher, 90%
- Cc1ccc(NS(=O)(=O)C2CC2)cc1C(=O)N1CCC(c2ccc(C#N)cc2)CC1 [Example 40, N-[3-[4-(4-cyanophenyl)piperidine-1-carbonyl]-4-methyl-phenyl]cyclopropanesulfonamide] — higher, 89%
- CCS(=O)(=O)Nc1cc(C(=O)N2CCC(c3ccc(C#N)cc3)CC2)ccc1C [Example 11, N-[5-[4-(4-cyanophenyl)piperidine-1-carbonyl]-2-methyl-phenyl]ethanesulfonamide] — higher, 88%
- CCC(C)S(=O)(=O)Nc1cc(C(=O)N2CCC(c3ccc(C#N)cc3)CC2)ccc1C (racemic) [Example 18, (RS)—N-[5-[4-(4-cyanophenyl)piperidine-1-carbonyl]-2-methyl-phenyl]butane-2-sulfonamide] — higher, 92%
- Cc1ccc(C(=O)N2CCC(c3ccc(Br)cc3)CC2)cc1NS(C)(=O)=O [Example 169, N-[5-[4-(4-bromophenyl)piperidine-1-carbonyl]-2-methylphenyl]methanesulfonamide] — higher, 90%
- Cc1ccc(C(=O)N2CCC(c3ccc(C#N)cc3)CC2)cc1NS(C)(=O)=O [Example 1, N-(5-(4-(4-cyanophenyl)piperidine-1-carbonyl)-2-methylphenyl)methanesulfonamide] — higher, 86%
- Cc1ccc(C(=O)N2CCC(c3ccc(C#N)cc3)CC2)cc1NS(=O)(=O)c1ccc(Cl)cc1 [Example 3, 4-chloro-N-[5-[4-(4-cyanophenyl)piperidine-1-carbonyl]-2-methyl-phenyl]benzenesulfonamide] — higher, 96%
- Cc1ccc(C(=O)N2CCC(c3ccc(C#N)cc3)CC2)cc1NS(=O)(=O)C1CCN(S(C)(=O)=O)CC1 [Example 121, N-[5-[4-(4-cyanophenyl)piperidine-1-carbonyl]-2-methyl-phenyl]-1-methylsulfonyl-piperidine-4-sulfonamide] — higher, 89%
- Cc1ccc(C(=O)N2CCC(c3ccc(C#N)c(F)c3)CC2)cc1NS(C)(=O)=O [Example 179, N-[5-[4-(4-cyano-3-fluorophenyl)piperidine-1-carbonyl]-2-methylphenyl]methanesulfonamide] — higher, 85%
- Cc1ccc(C(=O)N2CCC(c3ccc(C#N)cc3)CC2)cc1NS(=O)(=O)c1ccccc1C(=O)N(C)C [Example 206, 2-[[5-[4-(4-cyanophenyl)piperidine-1-carbonyl]-2-methylphenyl]sulfamoyl]-N,N-dimethylbenzamide] — lower, 76%
- Cc1ccc(C(=O)N2CCC(c3ccc(C#N)cc3)CC2)cc1NS(=O)(=O)CC(=O)N(C)C [Example 91, 2-[[5-[4-(4-cyanophenyl)piperidine-1-carbonyl]-2-methyl-phenyl]sulfamoyl]-N,N-dimethyl-acetamide] — the same, 80%
- COC(=O)c1cccc(S(=O)(=O)Nc2cc(C(=O)N3CCC(c4ccc(C#N)cc4)CC3)ccc2C)c1 [Example 76, Methyl 3-[[5-[4-(4-cyanophenyl)piperidine-1-carbonyl]-2-methyl-phenyl]sulfamoyl]benzoate] — higher, 97%
- Cc1ccc(NS(=O)(=O)c2ccc(Cl)s2)cc1C(=O)N1CCC(c2ccc(C#N)cc2)CC1 [Example 45, 5-chloro-N-[3-[4-(4-cyanophenyl)piperidine-1-carbonyl]-4-methyl-phenyl]thiophene-2-sulfonamide] — higher, 83%
- C[S+]([O-])c1ccc(C(=O)N2CCC(c3ccc(C#N)cc3)CC2)cc1NS(=O)(=O)Cc1ccccc1 (centres unmarked) [Example 211, N-[5-[4-(4-cyanophenyl)piperidine-1-carbonyl]-2-methylsulfinylphenyl]-1-phenylmethanesulfonamide] — higher, 92%
- Cc1ccc(NS(=O)(=O)C(C)C)cc1C(=O)N1CCC(c2ccc(C#N)cc2)CC1 [Example 32, N-[3-[4-(4-cyanophenyl)piperidine-1-carbonyl]-4-methyl-phenyl]propane-2-sulfonamide] — higher, 85%
- Cc1ccc(C(=O)N2CCC(c3ccc(C(=O)N4CCOCC4)cc3)CC2)cc1NS(C)(=O)=O [Example 231, N-[2-methyl-5-[4-[4-(morpholine-4-carbonyl)phenyl]piperidine-1-carbonyl]phenyl]methanesulfonamide] — higher, 86.1%
- Cc1ccc(C(=O)N2CCC(c3ccc(C#N)cc3)CC2)cc1NS(=O)(=O)C(C)CO (centres unmarked) [Example 138, N-[5-[4-(4-cyanophenyl)piperidine-1-carbonyl]-2-methyl-phenyl]-1-hydroxy-propane-2-sulfonamide] — higher, 100%
- Cc1ccc(C(=O)N2CCC(c3ccc(C#N)cc3)CC2)cc1NS(=O)(=O)c1ccccc1C(=O)NCCO [Example 207, 2-[[5-[4-(4-cyanophenyl)piperidine-1-carbonyl]-2-methylphenyl]sulfamoyl]-N-(2-hydroxyethyl)benzamide] — lower, 75%
- Cc1ccc(C(=O)N2CCC(c3ccc(C(N)=O)cc3)CC2)cc1NS(C)(=O)=O [Example 112, 4-[1-(3-methanesulfonamido-4-methyl-benzoyl)-4-piperidyl]benzamide] — lower, 79%
- Cc1ccc(C(=O)N2CCC(c3ccc(C#N)cc3)CC2)cc1NS(=O)(=O)c1c(Cl)nc2sccn12 [Example 101, 7-chloro-N-[5-[4-(4-cyanophenyl)piperidine-1-carbonyl]-2-methyl-phenyl]-4-thia-1,6-diazabicyclo[3.3.0]octa-2,5,7-triene-8-sulfonamide] — higher, 98%
- COc1ccccc1S(=O)(=O)Nc1cc(C(=O)N2CCC(c3ccc(C#N)cc3)CC2)ccc1C [Example 25, N-[5-[4-(4-cyanophenyl)piperidine-1-carbonyl]-2-methyl-phenyl]-2-methoxy-benzenesulfonamide] — higher, 87%
- COc1ccc(NS(=O)(=O)Cc2ccccc2)cc1C(=O)N1CCC(c2ccc(C#N)cc2)CC1 [Example 31, N-[3-[4-(4-cyanophenyl)piperidine-1-carbonyl]-4-methoxy-phenyl]-1-phenyl-methanesulfonamide] — higher, 83%

same assay, conditions: compounds excluded from the claims by proviso

With COC(=O)c1ccc(C2CCN(C(=O)c3ccc(C)c(NS(C)(=O)=O)c3)CC2)cc1 [Methyl 4-[1-(3-methanesulfonamido-4-methylbenzoyl)piperidin-4-yl]benzoate] the “IC50s in the range of about 0.001 μM to about 30 μM” value was “do not have IC50s in the range of about 0.001 μM to about 30 μM”.
